Reference: patent publication US20250051762A1, “PLATFORM USING DNA-ENCODED SMALL MOLECULE LIBRARIES AND RNA SELECTION TO DESIGN SMALL MOLECULES THAT TARGET RNA” (University of Florida Research Foundation, Incorporated, priority 2021, published 2025)

Assays:
3×3 ILL = test: 2DCS selection of microarray-immobilized compounds with 32P-labeled 3×3 ILL, Hit-StARTS analysis of RNA-seq; assay type: binding; settings: Zobs >4
Method: The interaction landscape for the ten representative DEL compounds emerging from the FACS screen were then defined by 2DCS (22). In 2DCS, small molecules are site-specifically conjugated to a microarray surface and then probed for binding to an RNA library under highly stringent conditions (FIGS. 2-B & S6). That is, the array is co-incubated with a radioactively labeled RNA library and an excess of competitor oligonucleotides that mimic regions common to all library members. […] To enable site-specific immobilization of compounds 1-10, a C-terminal alkyne handle was installed for CuAAC click (30) coupling to azide-displaying array surfaces. Installation of the alkyne was accomplished by coupling of bromoacetic acid onto rink amide resin followed by nucleophilic displacement with propargylamine prior to the synthesis of the SPDEL compounds (FIG. 2A).
All ten compounds bound to the 3×3 ILL under the highly stringent conditions described above, almost all dose-dependently (FIG. 2B). The RNAs bound to each small molecule were harvested, reverse transcribed into DNA, and sequenced by RNA-seq. The resulting data set was statistically analyzed by using High Throughput Structure-Activity Relationships Through Sequencing (Hit-StARTS) (31) in which the relative frequency of each selected RNA is compared to the frequency of that RNA in the starting library (pooled population comparison). (31) The statistical significance of the enrichment of selected RNAs is quantified by Zobs, which correlates with affinity and selectivity. (31) Here, a cut-off of Zobs >4 was employed, which was empirically determined from measured affinities via evaluation of compound 9 binding with potential RNA motifs extracted from the 2DCS (FIGS. 2-B, 13, & 14). […] This cut-off afforded, on average, 60±40 (range: 6-155) preferred, or privileged, RNA 3D folds for each compound. Compound 6 bound to largest number of RNA targets (n=155) while compound 9 bound the fewest (n=6) (FIG. 14). […]

[1] = target: 5′GAG/3′CCC loop at pri-miR-27a's Drosha site; test: Binding affinity by microscale thermophoresis (MST), Cy5-labeled RNA; parameters: species or system human
Method: (§1) Binding affinity measurements: Binding affinities were measured by microscale thermophoresis (MST), performed on a Monolith NT.115 system (NanoTemper Technologies) with Cy5-labeled RNAs. These RNAs include: the 5′GAG/3′CCC SEQ ID NO: 16 loop at pri-miR-27a's Drosha site (Sequence:/5′-Cy5/rCrUrGrArGrGrUrGrArArArCrArUrCrCrCrArG SEQ ID NO: 17; Dharmacon), a related internal loop not selected by 9. 5′CAG/3′GCC SEQ ID NO: 17 loop (Sequence:/5′-Cy5/rCrUrCrArGrGrUrGrArArArCrArUrCrCrGrArG SEQ ID NO: 16; Dharmacon), and an RNA in which the loop is mutated to a base pair (Sequence:/5-Cy5/rCrUrGrArGrGrUrGrArArArCrArUrCrUrCrArG SEQ ID NO: 16; Dharmacon).
(§2) Briefly, Cy5-labeled RNA (10 nM) was prepared in 1× Binding Buffer and folded by heating at 60° C. for 5 min and then slowly cooling to room temperature. After cooling, Tween-20 was added to a final concentration of 0.1% (v/v). Compound solutions were prepared separately in 20 μL of 1× Binding Buffer at a final concentration of 5 μM (1% (v/v) DMSO), followed by 1:1 serial dilutions in 1× Binding Buffer. RNA and compound solutions were then mixed 1:1 by volume to a total of 20 μL.
(§3) Samples were incubated for 20 min at room temperature and then loaded into premium capillaries (NanoTemper Tech, Cat #MO-K025). The following parameters were used for MST measurements: 5-20% LED power (adjusted to keep fluorescence intensity between 2000 and 8000), 80% MST power, Laser-On time=30 s, Laser-Off time=25 s. The resulting data were analyzed by calculating the change in thermophoresis as a function of compound concentration and fitted by Equation 1, a one site binding model, in NanoTemper Tech's MST analysis software to yield the dissociation constant (Kd):
(§4) Where F is the concentration of fluorescently labeled RNA; unbound and bound refer to the thermophoresis signal at completely unbound and bound state of RNA, respectively; c is the concentration of the compound; f (c) is the thermophoresis signal at compound concentration of c; and Kd is the dissociation constant.

[2] = test system: fully paired RNA (loop mutated to a base pair); test: Binding affinity by MST, Cy5-labeled fully paired RNA
Method: as §1, §2, §3, §4

5′CAG/3′GCC loop = test: Binding affinity by MST, Cy5-labeled mutated loop RNA; parameters: species or system human; settings: mutated loop 5′CAG/3′GCC
Method: as §1
Briefly, Cy5-labeled RNA (10 nM) was prepared in 1× Binding Buffer and folded by heating at 60° C. for 5 min and then slowly cooling to room temperature. […]
as §3, with “(Kd): […]” for “(Kd):”

pri-miR-27a = test: RT-qPCR of pri- and mature miR-27a in MDA-MB-231 TNBC cells; assay type: cell-based, human; settings: MDA-MB-231, RT-qPCR
Method: Cell lines. Compounds were tested in MDA-MB-231 TNBC cells (HTB-26, ATCC), LNCaP metastatic prostate cancer cells (gifted from Junli Luo lab), MCF-7 (HTB-22, ATCC) breast cancer cells, HeLa cervical adenocarcinoma cells (CCL-2, ATCC), and MCF-10a, a model of healthy breast epithelial cells (CRL-10317, ATCC).
Cell culture and compound treatment. All cells were maintained at 37° C. with 5% CO2. MDA-MB-231 and LNCaP cells were cultured in RPMI 1640 medium with L-glutamine & 25 mM HEPES (Corning) supplemented with 10% (v/v) fetal bovine serum (FBS; Sigma) and 1× (v/v) Antibiotic-Antimycotic solution (Corning). MCF-7 and HeLa cells were cultured in DMEM medium with 4.5 g/L glucose (Corning), supplemented with 10% FBS, 1× (v/v) Glutagro (Corning), and 1× (v/v) Antibiotic-Antimycotic solution. MCF10a cells were cultured in DMEM/F12 50/50 with L-glutamine & 15 mM HEPES (Corning), supplemented with 10% FBS, 20 ng/mL human epidermal growth factor (Pepro Tech Inc.), […] hydrocortisone (Pfaltz & Bauer), 100 ng/mL cholera toxin (Sigma-Aldrich), 10 μg/mL insulin (Sigma-Aldrich), and 1× (v/v) Antibiotic-Antimycotic solution.
MCF-10a cells were transfected with plasmids to express pri-miR-27a and mutant pri-miR-27a in 12- or 24-well plates with Lipofectamine 2000 per the manufacturer's protocol. For treatment of compounds, stocks were diluted in growth medium and added to cells for 48 h. The miRCURY miR-27a LNA inhibitor (QIAGEN, Cat #339121) was used as a positive control by diluting in growth medium to a final concentration of 1 nM. The miRCURY LNA Negative Control (QIAGEN, Cat #YI00199007-DDA) was used as a negative control, which has also diluted in growth medium to a final concentration of 1 nM.
Analysis of mRNA abundance: Each cell line was grown as a monolayer in 12- or 24-well plates and treated as described in “Cell culture and compound treatment”. After 48 h, the cells were lysed, and total RNA was harvested using a Zymo Quick RNA Miniprep Kit per the manufacturer's protocol. To measure the abundance of mature miRNAs, approximately 250 ng of total RNA was reverse transcribed using the High Flex Buffer provided in a miScript II RT Kit (Qiagen) per the manufacturer's protocol (10 μL total reaction volume). For pri-miRNAs and mRNA, approximately 300 ng of total RNA was reverse transcribed using a qScript cDNA synthesis kit (10 μL total reaction volume, Quanta BioSciences). For all types of RNAs, 2 μL of the RT reaction was used for qPCR using SYBR Green Master Mix and a QuantStudio™ 5 Real-Time PCR System. Relative abundance of mature miRNAs was calculated by normalizing to RNU6, and relative abundance for pri-miRNAs and mRNAs was calculated by normalizing to 18S ribosomal RNA, using the […]. (12)

SMILES	number of RNA motifs bound that are unique to the compound (3×3 ILL)	saturable binding [2]	other results
C#CCN(CC(N)=O)C(=O)C(CC(C)C)N1CC[C@H](NC(=O)[C@@H]2C[C@H](N)CN2C(=O)c2c[nH]c3ccc(Cl)cc23)C1=O (some centres unmarked) [Compound 3]	41	–	–
C#CCN(CC(N)=O)C(=O)C(CC(C)C)N1CC[C@H](NC(=O)[C@@H]2C[C@@H](N)CN2C(=O)c2c[nH]c3ccc(Cl)cc23)C1=O (some centres unmarked) [Compound 4]	2	–	–
C#CCN(CC(N)=O)C(=O)C1CCN1C(=O)C1CC(N)CN1C(=O)c1ccccc1C(=O)N1CCOCC1 (centres unmarked) [Compound 5]	–	Saturable binding was not observed	Kd [1]: 700 ± 100 nM
C#CCN(CC(N)=O)C(=O)C[C@H](Cc1c[nH]c2ccccc12)NC(=O)[C@@H]1C[C@@H](NC(=O)Cn2c(=O)[nH]c3ccccc3c2=O)CN1 [Compound 10]	–	binds to none of the three RNAs	binding [1]: binds to none of the three RNAs; binding (5′CAG/3′GCC loop): binds to none of the three RNAs; inhibition of miR-27a (comparison of 5, 7, 9, 10) (pri-miR-27a): inactive
